Results on 7 compounds are retold here after PMC12214830, “The human RIF1-Long isoform interacts with BRCA1 to promote recombinational fork repair under DNA replication stress” (Nature Communications, 2025).

The test system of assay [1] is RIF1-BRCA1 proximity in RPE-1 cells. The experiment in a line: RIF1-BRCA1 proximity ligation assay, RPE-1 cells. Type of assay: cell-based, human. Here is the method: (§1) Proximity ligation assays were performed using the Duolink In Situ PLA Fluorescence Protocol (Sigma-Aldrich, DUO92101) following the manufacturer’s instruction. Cells were grown on glass coverslips and treated as indicated for specific experiments. Cells were then permeabilized with 0.5% TritonX-100 in PBS for 10 min on ice, and fixed with 3% formaldehyde, 2% sucrose in PBS for 10 min at room temperature (RT). After fixation, coverslips were blocked in 3% BSA in PBS for 1 h at RT and incubated with primary antibodies (anti-RIF1, Bethel laboratories A300-568A, 1:1000 dilution; anti-BRCA1, Santa Cruz Biotechnologies, sc-6954, 1:200 dilution), for 1 h at RT in a humidity chamber. Primary antibodies were then washed off with PLA washing buffer A supplied in the Duolink In Situ PLA kit. Coverslips were next incubated sequentially with PLA Probes (1 h at 37 °C), ligation solution (30 min at 37 °C) and amplification solution (100 min at 37 °C), with washes by washing buffer A in between each step. At the end of incubation, coverslips were washed with washing buffer B supplied in the Duolink In Situ PLA kit. Coverslips were then mounted on glass slides with PLA Mounting medium with DAPI. Images were captured by fluorescence microscopy (Zeiss Axio Imager). PLA foci number in each nucleus were analysed by CellProfiler Software[74] with a custom-made pipeline.
For EdU labelling combined with proximity ligation assay, cells were labelled with 10 µM EdU for 15 min, washed free of EdU and next incubated with medium containing 4 mM HU medium for 4 h. Cells were then permeabilized, fixed and subjected to RIF1-BRCA1 PLA procedures. After all PLA steps, EdU detection was performed following manufacturer’s instructions in the Click-iT EdU Imaging Kit (Invitrogen, C10640).
(§2) For proximity ligation assays and immunofluorescence signal intensity measurements, when comparing between two samples, statistical significance of differences was calculated by Mann-Whitney test for non-parametric distributions using GraphPad Prism software (v.9). When comparing among three or more samples, p values were calculated by Kruskal-Wallis test for non-parametric distributions with Dunn’s multiple comparisons using GraphPad Prism software (v.9). For RIF1 foci formation analysis (Fig. 6B), p values were calculated by two-tailed Student’s t test. For nuclear BRCA1 intensity fold change analyses (Fig. 6C, D), p values were calculated by two-tailed one-sample t test using GraphPad Prism software (v.9). For RAD51 foci formation analyses (Fig. 7B, E and Supplementary Fig. 7B), p values were calculated by chi-square test. For HR Reporter assay analysis (Fig. 7G and Supplementary Fig. 7L), p values were calculated by two-tailed paired Student’s t test. For micronuclei frequency analysis (Fig. 7H), p values were calculated by one-tailed paired Student’s t test. All Student’s t tests were performed with Excel T.TEST function. Chi-square tests were performed with the online Chi-square test calculator at https://www.socscistatistics.com/tests/chisquare2/default2.aspx. Sample number n for all box-and-whisker plots and dot plots are listed in Supplementary Data 1.

The test system of the next assay is HCT116 cells. The experiment in a line: colony formation (clonogenic survival) assay, HCT116 cells. Type of assay: cell-based, human. The method, then:
For HCT116-derived cells, cells were plated in 6-well plates at 250 cells/well, in triplicate for each drug concentration. Cells were incubated with drugs for 24 h, after which drug-containing medium was replaced with drug-free medium. Seven days later colony counting was performed using a Nikon Eclipse TS100 microscope. For the IR sensitivity test, cells were plated following the same procedure, then irradiated at desired doses and incubated for 7 days before colony counting. Clusters with more than 20 cells were counted as colonies. Mean and standard error of each triplicate was calculated.

Assay [2] has as its system RIF1-BRCA1 proximity in HeLa cells. The experiment in a line: RIF1-BRCA1 proximity ligation assay, HeLa cells. Type of assay: cell-based, human. The note with it: HeLa +RIF1-L. Here is the method: as §1, §2
In the next assay the test system is RIF1-L-pS2265 antibody. In words: ELISA, RIF1-L pS2265 antibody binding to exon 31 peptides. Further details: key: absorbance at 450 nm, blank-subtracted. The method, then:
Two biotinylated peptides corresponding to exon 31 of human RIF1-L without phosphorylation (Biotin-(long chain)-[…]) and with phosphorylation at S2265 (Biotin-(long chain)-[…]-pS-[…]) were synthesised by Eurogentec Ltd (Southampton, Hampshire, UK). Two peptides were mixed in a variable ratio of 0–1% phosphorylated peptide/total peptide. The concentration of total peptide was kept constant at 250 nM in the ELISA wash buffer (1x TBS with 0.1% BSA and 0.05% Tween-20). The peptides were incubated within streptavidin-coated 96-well plates (Pierce Streptavidin Coated High Capacity Plates, Thermo Scientific, 15500) for 2 h at room temperature. After washing with ELISA wash buffer, the RIF1-L pS2265 phospho-antibody (1:2500 dilution) was added and incubated for 2 h at room temperature, followed by washing and incubation with HRP-conjugated secondary antibody (anti-rabbit; Bio-Rad #1706515, 1/10,000 dilution) for 1 h at room temperature. After washing, TMB substrate solution (1-Step Slow TMB-Elisa Substrate Solution, ThermoFisher, 34024) was added to develop the blue colour. 1 N HCl was then added to stop the reaction. Absorbance at 450 nm was measured. The average readings of the blank wells were subtracted. Mean and standard deviations of technical triplicates are shown.
For orientation: An ELISA detects its analyte on a solid surface through an enzyme-linked reagent.

The next assay deals with micronuclei. In words: micronuclei frequency, HeLa cells. Type of assay: cell-based, human. To be noted: Fig.7H. Here is the method:
as §2

[3] abbreviates: Fig S4I, ATMi (KU-60019) 2µM + HU 4mM 24hr.
The mark [4] stands for this setting: Fig S4J, DNA-PKi (NU-7441) 1µM + HU 4mM 24hr.
Setting [5] is: HeLa RIF1 KO + GFP-RIF1 derivative cells, HU, experiment 07Jun2024.
Setting [6] is: HeLa RIF1 KO + GFP-RIF1 derivative cells, unt, experiment 07Jun2024.

With `C[C@@]1(CO)[C@H](O)CC[C@@]2(C)[C@H]1CC[C@H]1C[C@@H]3C[C@@]12CC[C@]3(O)CO` [APH, aphidicolin], the “RIF1-BRCA1 PLA foci” value in assay [1] (APH 4 µM 24 h) is “also induced PLA foci”. In addition, in assay [1] (Fig 3C, APH 4 µM 24 h), the “RIF1-BRCA1 PLA foci per nucleus, mean” value was 1.540 and the “RIF1-BRCA1 PLA foci per nucleus, median” value was 1. Moreover, the “colony survival, RIF1-L cells” value with HCT116 cells (HCT116 expressing only RIF1-L, versus RIF1-WT) is “RIF1-L conferred resistance comparable to RIF1-WT”. Moreover, the “colony survival, RIF1-S cells” value in the assay with HCT116 cells (HCT116 expressing only RIF1-S, versus RIF1-KO) is “exhibited hypersensitivity to these drugs similar to RIF1-KO cells”.
Turning to `C[C@@H]1CN(CC(=O)Nc2ccc3c(c2)Cc2cccc(-c4cc(=O)cc(N5CCOCC5)o4)c2S3)C[C@H](C)O1` [KU-60019], in assay [2] (setting [3]), the “RIF1-BRCA1 PLA foci per nucleus, mean” value was 18.33 and the “RIF1-BRCA1 PLA foci per nucleus, median” value is 2, 17, 17. In addition, the “RIF1-BRCA1 PLA” value in assay [2] (ATMi (KU-60019) 2 µM 24 h + HU 4 mM 24 h) is on record as “no apparent effect”.
In the case of `O=c1cc(N2CCOCC2)oc2c(-c3cccc4c3sc3ccccc34)cccc12` [NU-7441], the “RIF1-BRCA1 PLA” value in assay [1] (DNA-PKi (NU-7441) 1 µM 24 h + HU 4 mM 24 h) is recorded as “no apparent effect”. Moreover, in assay [1] (setting [4]), the “RIF1-BRCA1 PLA foci per nucleus, mean” value turned out to be 7.597 and the “RIF1-BRCA1 PLA foci per nucleus, median” value is 0, 5, 5.
As for “Biotin-(long chain)-HNTTSAKGFLSPGSR-pS-PKFKSSKKCL [RIF1-L-phosphoS2265 peptide, biotinylated exon 31 peptide of human RIF1-L phosphorylated at S2265]”, the “A450, Average” value in the assay with RIF1-L-pS2265 antibody (0.00% phosphorylated/total peptide (250 nM total), mean of technical triplicates) was 0.009; in the assay on RIF1-L-pS2265 antibody (0.13% phosphorylated/total peptide (250 nM total), mean of technical triplicates), 0.104; in the assay on RIF1-L-pS2265 antibody (0.25% phosphorylated/total peptide (250 nM total), mean of technical triplicates) it was 0.166; with RIF1-L-pS2265 antibody (0.50% phosphorylated/total peptide (250 nM total), mean of technical triplicates) it was 0.239; with RIF1-L-pS2265 antibody (1.00% phosphorylated/total peptide (250 nM total), mean of technical triplicates) it was 0.346; with RIF1-L-pS2265 antibody (Standard 0.13%, average of 3, right block), 0.104. Also, the “A450, Average” value in the assay with RIF1-L-pS2265 antibody (Standard 0.25%, average of 3, right block) was 0.166; with RIF1-L-pS2265 antibody (Standard 0.50%, average of 3, right block), 0.239; with RIF1-L-pS2265 antibody (Standard 1.00%, average of 3, right block) it was 0.346. In addition, the A450 is given as 0.01 with RIF1-L-pS2265 antibody (0.00% phosphorylated/total peptide (250 nM total), replicate 1); 0.008 in the assay with RIF1-L-pS2265 antibody (0.00% phosphorylated/total peptide (250 nM total), replicate 2); 0.01 with RIF1-L-pS2265 antibody (0.00% phosphorylated/total peptide (250 nM total), replicate 3); 0.106 in the assay on RIF1-L-pS2265 antibody (0.13% phosphorylated/total peptide (250 nM total), replicate 1); 0.104 in the assay on RIF1-L-pS2265 antibody (0.13% phosphorylated/total peptide (250 nM total), replicate 2); 0.103 with RIF1-L-pS2265 antibody (0.13% phosphorylated/total peptide (250 nM total), replicate 3). Also, the A450 with RIF1-L-pS2265 antibody (0.25% phosphorylated/total peptide (250 nM total), replicate 1) stood at 0.16; in the assay on RIF1-L-pS2265 antibody (0.25% phosphorylated/total peptide (250 nM total), replicate 2) it was 0.169; in the assay on RIF1-L-pS2265 antibody (0.25% phosphorylated/total peptide (250 nM total), replicate 3), 0.169; with RIF1-L-pS2265 antibody (0.50% phosphorylated/total peptide (250 nM total), replicate 1), 0.247; in the assay on RIF1-L-pS2265 antibody (0.50% phosphorylated/total peptide (250 nM total), replicate 2) it was 0.216; with RIF1-L-pS2265 antibody (0.50% phosphorylated/total peptide (250 nM total), replicate 3), 0.255. The A450 is 0.348 with RIF1-L-pS2265 antibody (1.00% phosphorylated/total peptide (250 nM total), replicate 1); 0.343 in the assay with RIF1-L-pS2265 antibody (1.00% phosphorylated/total peptide (250 nM total), replicate 2); 0.347 in the assay on RIF1-L-pS2265 antibody (1.00% phosphorylated/total peptide (250 nM total), replicate 3); 0.155 with RIF1-L-pS2265 antibody (Standard 0.13%, replicate 1, left block); 0.106 in the assay on RIF1-L-pS2265 antibody (Standard 0.13%, replicate 1, right block (0.049 below left block)); 0.153 in the assay with RIF1-L-pS2265 antibody (Standard 0.13%, replicate 2, left block). The A450 came to 0.104 in the assay with RIF1-L-pS2265 antibody (Standard 0.13%, replicate 2, right block (0.049 below left block)); 0.152 in the assay with RIF1-L-pS2265 antibody (Standard 0.13%, replicate 3, left block); 0.103 with RIF1-L-pS2265 antibody (Standard 0.13%, replicate 3, right block (0.049 below left block)); 0.209 in the assay on RIF1-L-pS2265 antibody (Standard 0.25%, replicate 1, left block); 0.16 in the assay with RIF1-L-pS2265 antibody (Standard 0.25%, replicate 1, right block (0.049 below left block)); 0.218 with RIF1-L-pS2265 antibody (Standard 0.25%, replicate 2, left block). In addition, the A450 was determined as 0.169 with RIF1-L-pS2265 antibody (Standard 0.25%, replicate 2, right block (0.049 below left block)); 0.218 in the assay with RIF1-L-pS2265 antibody (Standard 0.25%, replicate 3, left block); 0.169 in the assay on RIF1-L-pS2265 antibody (Standard 0.25%, replicate 3, right block (0.049 below left block)); 0.296 with RIF1-L-pS2265 antibody (Standard 0.50%, replicate 1, left block); 0.247 in the assay with RIF1-L-pS2265 antibody (Standard 0.50%, replicate 1, right block (0.049 below left block)); 0.265 in the assay on RIF1-L-pS2265 antibody (Standard 0.50%, replicate 2, left block). The A450 with RIF1-L-pS2265 antibody (Standard 0.50%, replicate 2, right block (0.049 below left block)) was determined as 0.216; with RIF1-L-pS2265 antibody (Standard 0.50%, replicate 3, left block), 0.304; in the assay on RIF1-L-pS2265 antibody (Standard 0.50%, replicate 3, right block (0.049 below left block)), 0.255; in the assay on RIF1-L-pS2265 antibody (Standard 1.00%, replicate 1, left block) it was 0.397; in the assay with RIF1-L-pS2265 antibody (Standard 1.00%, replicate 1, right block (0.049 below left block)), 0.348; in the assay with RIF1-L-pS2265 antibody (Standard 1.00%, replicate 2, left block), 0.392. Further, the A450 turned out to be 0.343 with RIF1-L-pS2265 antibody (Standard 1.00%, replicate 2, right block (0.049 below left block)); 0.396 with RIF1-L-pS2265 antibody (Standard 1.00%, replicate 3, left block); 0.347 in the assay on RIF1-L-pS2265 antibody (Standard 1.00%, replicate 3, right block (0.049 below left block)).
Turning to Phleomycin, in the assay on HCT116 cells (HCT116 expressing only RIF1-L or only RIF1-S), the “colony growth after treatment, RIF1-L and RIF1-S cells” value is on record as “able to support colony growth”.
As for RIF1-L -APKF, the “Micronuclei per 100” value with micronuclei (HU, experiment 14Apr2024) is recorded as 14.2857; in the assay on micronuclei (setting [5]), 12.35; with micronuclei (setting [6]) it was 6.03; in the assay on micronuclei (unt, experiment 14Apr2024), 4.214.
Taken in the same sequence, the figures for RIF1-S were 12.4358, 12.93, 6.41 and 6.217.
